Results published in PMC10239048, “Synthesis and antioxidant, antimicrobial, and antiviral activity of some pyrazole-based heterocycles using a 2(3H)-furanone derivative” (Journal of the Iranian Chemical Society, 2023).
≈ marks a conversion by molar mass, not a printed value.

Key:
[1] = test system: Haemophilus (Gram –ve); test: Agar/disk diffusion inhibition zone, Haemophilus; type: cell-based; conditions: diffusion method
[2] = test system: avian influenza HPAI-H5N1 (AIV); parameters: species or system avian influenza virus HPAI-H5N1; conditions: in vivo
[3] = test system: embryonated chicken SPF eggs; conditions: in vivo
[4] = test system: Staphylococcus aureus; test: Agar/disk diffusion inhibition zone, Staphylococcus aureus; type: cell-based; conditions: diffusion method
[5] = test system: Haemophilus (Gram –ve); test: MIC measurement by serial dilution, Haemophilus; type: cell-based; conditions: read-out: MIC Haemophilus (Gram –ve)
[6] = test system: avian influenza HPAI-H5N1 (AIV); parameters: species or system avian influenza virus HPAI-H5N1; conditions: in vivo; remark: listed apart in the source
[7] = test system: SPF chicks; test: Immune-boosting properties in vaccinated SPF chicks (humeral response); type: in vivo, chicken; conditions: for Humeral response of vaccinated groups which received each tested compound separately: SPF chicks, vaccine-only group 7 log2; for Immune-boosting properties (in words): antibody titer in serum of vaccinated chicks
[8] = Total antioxidant capacity (TAC), phosphomolybdenum method; conditions: for Total antioxidant capacity: 500 µg/ml in methanol, 95 °C 90 min, 695 nm, means ± S.D., n = 3
[9] = test system: Candida albicans; test: Agar diffusion antifungal activity, Candida albicans; type: cell-based; conditions: diffusion method
[10] = test system: Staphylococcus aureus; test: MIC measurement by serial dilution, Staphylococcus aureus; type: cell-based; conditions: 37 °C, 24–72 h, read-out: MIC Staph (Gram + ve)

| Compound | Inhibition diameter Haemophilus (Gram –ve) [1] | TI [2] | CC50 [3] | Inhibition diameter Staph (Gram + ve) [4] | MIC [5] | Antiviral activity against avian influenza virus (in words) [6] | Virus titer with compound [6] | Humeral response of vaccinated groups which received each tested compound separately [7] | Immune-boosting properties (in words) [7] | Total antioxidant capacity [8] | Candida albicans (diameter of inhibition zone) [9] | MIC [10] | Antioxidant activity (in words) [8] |
| --- | --- | --- | --- | --- | --- | --- | --- | --- | --- | --- | --- | --- | --- |
| Cc1ccc(C(=O)CC(=Cc2c(C)nn(-c3ccccc3)c2Cl)C(=O)NN=Cc2cn(-c3ccccc3)nc2-c2ccccc2)cc1 [Compound 16, 2-((5-Chloro-3-methyl-1-phenyl-1H-pyrazol-4-yl)methylene)-N'-((1,3-diphenyl-1H-pyrazol-4-yl)methylene)-4-oxo-4-(p-tolyl)butanehydrazide] | 23 mm | 83.3 | 500 > µl/ egg | 22 mm | 6 µg/mL (≈ 9.39 µM) | remarked antiviral activity | 10^1 | 7.2 log2 | special immune-boosting properties | 205.82 ± 2.45 mg AAE/g dry compound | 23 mm | 5 µg/mL | – |
| Cc1ccc(C2=CC(=Cc3c(C)nn(-c4ccccc4)c3Cl)C(=O)N2N=Cc2ccc(Cl)cc2)cc1 [Compound 15, 3-((5-Chloro-3-methyl-1-phenyl-1H-pyrazol-4-yl)methylene)-1-((4-chlorobenzylidene)-amino)-5-(p-tolyl)-1,3-dihydro-2H-pyrrol-2-one] | 7 mm | 55.5 | 500 > µl/ egg | 6 mm | 16 µg/mL (≈ 31.2 µM) | little antiviral activity | 10^5 | 6.6 log2 | – | 262.27 ± 2.51 mg AAE/g dry compound | 6 mm | 18 µg/mL | – |
| Cc1ccc(C(=O)CC(=Cc2c(C)nn(-c3ccccc3)c2Cl)C(=O)NCC(C)C)cc1 [Compound 6, 2-((5-Chloro-3-methyl-1-phenyl-1H-pyrazol-4-yl)methylene)-N-isobutyl-4-oxo-4-(p-tolyl)butanamide] | 25 mm | 83.3 | 500 > µl/ egg | 22 mm | 5 µg/mL (≈ 11.1 µM) | remarked antiviral activity | 10^1 | 7.4 log2 | special immune-boosting properties | 248.67 ± 4.11 mg AAE/g dry compound | 20 mm | 4 µg/mL | – |
| Cc1ccc(C2=CC(=Cc3c(C)nn(-c4ccccc4)c3Cl)C(=O)N2NC(=O)c2ccccc2)cc1 [Compound 14, N-(3-((5-Chloro-3-methyl-1-phenyl-1H-pyrazol-4-yl)methylene)-2-oxo-5-(p-tolyl)-2,3-dihydro-1H-pyrrol-1-yl)benzamide] | 8 mm | 55.5 | 500 > µl/ egg | 7 mm | 16 µg/mL (≈ 32.3 µM) | little antiviral activity | – | 7.2 log2 | – | 261.0 ± 2.48 mg AAE/g dry compound | 7 mm | 16 µg/mL | – |
| CC(=O)N(C(C)=O)N1C(=O)C(=Cc2c(C)nn(-c3ccccc3)c2Cl)C=C1c1ccc(C)cc1 [Compound 13, N-Acetyl-N-(3-((5-chloro-3-methyl-1-phenyl-1H-pyrazol-4-yl)methylene)-2-oxo-5-(p-tolyl)-2,3-dihydro-1H-pyrrol-1-yl)acetamide] | 12 mm | 71.42 | 500 > µl/ egg | 14 mm | 10 µg/mL (≈ 21.1 µM) | less antiviral activity | – | 6.9 log2 | – | 190.0 ± 1.67 mg AAE/g dry compound | 14 mm | 9 µg/mL | Moderate antioxidant activity |
| Cc1ccc(C(=O)CC(=Cc2c(C)nn(-c3ccccc3)c2Cl)C(=O)NCc2ccccc2)cc1 [Compound 5, N-Benzyl-2-((5-chloro-3-methyl-1-phenyl-1H-pyrazol-4-yl)methylene)-4-oxo-4-(p-tolyl)butanamide] | 23 mm | 96.77 | 300 > µl/ egg | 24 mm | 3 µg/mL (≈ 6.2 µM) | remarked antiviral activity | 10^1 | 7.4 log2 | special immune-boosting properties | 221.14 ± 4.63 mg AAE/g dry compound | 22 mm | 3 µg/mL | – |
| Cc1ccc(C(=O)CC(=Cc2c(C)nn(-c3ccccc3)c2Cl)C(=O)NN)cc1 [Compound 8, 2-((5-Chloro-3-methyl-1-phenyl-1H-pyrazol-4-yl)methylene)-4-oxo-4-(p-tolyl)butanehydrazide] | 4 mm | 55.5 | 500 > µl/ egg | 8 mm | 12 µg/mL (≈ 29.3 µM) | little antiviral activity | – | 6.6 log2 | – | 145.0 ± 1.73 mg AAE/g dry compound | 8 mm | 13 µg/mL | Moderate antioxidant activity |
| Cc1ccc(-c2cc(Cc3c(C)nn(-c4ccccc4)c3Cl)c(=O)[nH]n2)cc1 [Compound 9, 4-((5-chloro-3-methyl-1-phenyl-1H-pyrazol-4-yl)methyl)-6-(p-tolyl)pyridazin-3(2H)-one] | 1 mm | 50 | 400 > µl/ egg | 2 mm | 20 µg/mL (≈ 51.2 µM) | little antiviral activity | – | 6log2 | less immune-boosting properties | 374.0 ± 2.08 mg AAE/g dry compound | 2 mm | 19 µg/mL | highest potent levels of activity |
| Cc1ccc(C2=CC(=Cc3c(C)nn(-c4ccccc4)c3Cl)C(=O)O2)cc1 [Compound 3, 3-((5-Chloro-3-methyl-1-phenyl-1H-pyrazol-4-yl)methylene)-5-(p-tolyl)furan-2(3H)-one] | 22 mm | 96.77 | 300 > µl/ egg | 23 mm | 1 µg/mL (≈ 2.65 µM) | remarked antiviral activity | 10^1 | 7.3 log2 | special immune-boosting properties | 156.33 ± 4.04 mg AAE/g dry compound | 24 mm | 2 µg/mL | Moderate antioxidant activity |
